How the values were obtained:
Format in all cases: cell-based, Chinese hamster
[1] = tested on: recombinant CHO cell line producing an antibody (MAb A); experiment: six day batch assay, cell culture parameters (VCD, viability, titer); settings: for Titer / VCD / Viability: day 6
Method: Cells were centrifuged at 1500 rpm for five minutes and seeded at 2×10^6 cells per ml into batch production medium in a 24 deep-well plate at a final volume of 3 ml.
Cell density and viability were measured by Guava easyCyte flow cytometer (Milipore, Billerica, Mass.) with the ViaCount application. Cultures were spun down, supernatants were filtered on 0.4 micron filters, and were analyzed for titer and glycan distribution.
Antibody titer was measured by loading filtered cell culture supernatants over a POROS A/20 Protein A column (Applied Biosystems, Carlsbad, Calif.) equilibrated with 20 mM Tris, […], pH 7.0 buffer. Antibody elution was performed with 220 mM acetic acid, […], pH 2.6 buffer at a mobile phase flow rate of 4.0 ml/min. Eluted antibody was detected at a wavelength of 280 nm. Antibody concentration was determined based on a standard curve with a reference antibody standard. For high molecular weight measurement, antibodies were purified from spent medium supernatants on ATOLL columns (ATOLL-Bio Inc USA, Lawrance, Kans.) and were then analyzed using size exclusion chromatography.
Cell culture performance was assessed via viable cell density (VCD), viability and titer measurements of harvested samples. Each bar represents an average result for duplicate cell culture samples. Each value is an average of duplicates.

Cells producing MAb C = experiment: mock perfusion assay, glycan analysis
Method: (§1) Mock perfusion assay is a small scale, plate-based assay that is designed to mimic perfusion conditions in bioreactors through daily medium exchanges. For a 10-day mock perfusion assay, passaging cultures of various production cell lines were diluted 1:5 into chemically defined base perfusion medium in a 24 deep-well plate at a final volume of 3 ml per well. Mock perfusion was initiated on day 3 when the cells were spun down at 1000 rpm for 5 minutes and 25% of each spent culture medium was exchanged with the equivalent volume of fresh perfusion media. Subsequent medium exchange percentages were 40% on days 4-8 and 50% on day 9. Exchanged supernatants were stored at 4° C. prior to analysis.
(§2) Analysis of cell culture parameters was also started on day 3; viable cell density and viability were analyzed using the ViaCount Guava assay as previously described. Glucose was measured daily starting on day 3 and was maintained at 12 g/l. Stored supernatants were analyzed for antibody titer as described previously. Samples of supernatant fluid from days 6, 8 and 10 were also analyzed for the presence and type of glycans by HILIC analysis.
Equivalent volumes of methanol were added daily to control cultures (columns 1 and 2 of the 24-well plate). This scheme is depicted below:
(§3) Total high mannose values (Total HM column) and the corresponding distributions into high mannose species from Man5 through Man9 were determined for purified antibody samples collected on day 10. Each value shown in Table 4 represents an average of duplicates.

Cells producing MAb A = experiment: mock perfusion assay, glycan analysis; settings: for Man5 / Man6 / Man7 / Man8a / Man8b / Man9: day 10
Method: as §1, §2
(§4) The cell lines used included three production cell lines that are known to generate mAbs with low high mannose glycans (MAb A, MAb B and MAb C) and one production cell line that consistently produces product with high levels of high mannose glycans (MAb D). […] Equivalent volumes of methanol were added daily to control cultures (columns 1 and 2 of the 24-well plate). This scheme is depicted below:
as §3

Cells producing MAb D = experiment: mock perfusion assay, glycan analysis; settings: for Man5 / Man6 / Man7 / Man8a / Man8b / Man9: day 10
Method: as §1, §2, §4, §3

Cells producing MAb B = experiment: mock perfusion assay, glycan analysis; settings: for Man5 / Man6 / Man7 / Man8a / Man8b / Man9: day 10
Method: as §1, §2, §4, §3

[2] = constant monensin 25 nM from day 3, Day 6
[3] = constant monensin 25 nM from day 3, Day 8
[4] = constant monensin 25 nM from day 3, Day 10
[5] = constant monensin 25 nM, day 10
[6] = increasing monensin (25 nM day 4, 50 nM days 5-6, 100 nM days 7-9), Day 6
[7] = increasing monensin (25 nM day 4, 50 nM days 5-6, 100 nM days 7-9), Day 8
[8] = increasing monensin (25 nM day 4, 50 nM days 5-6, 100 nM days 7-9), Day 10
[9] = increasing monensin (to 100 nM), day 10
[10] = increasing monensin (to 100 nM)

For `CC[C@@]1([C@@H]2O[C@@H]([C@H]3O[C@@](O)(CO)[C@H](C)C[C@@H]3C)C[C@@H]2C)CC[C@H]([C@]2(C)CC[C@]3(C[C@H](O)[C@@H](C)[C@@H]([C@@H](C)[C@@H](OC)[C@H](C)C(=O)O)O3)O2)O1` [monensin], the Titer ([1]; 0.1 nM monensin added day 1) was 3.835 g/L, the VCD ([1]; 0.1 nM monensin added day 1) was 10 10^6c/ml and the Viability ([1]; 0.1 nM monensin added day 1) was 81%. The Titer ([1]; 0.5 nM monensin added day 1) was 4.415 g/L, the VCD ([1]; 0.5 nM monensin added day 1) was 11 10^6c/ml and the Viability ([1]; 0.5 nM monensin added day 1) was 81%. The Titer ([1]; 1 nM monensin added day 1) was 4.265 g/L, the VCD ([1]; 1 nM monensin added day 1) was 11 10^6c/ml and the Viability ([1]; 1 nM monensin added day 1) was 82%. For the same compound, the Titer ([1]; 5 nM monensin added day 1) was 3.45 g/L, the VCD ([1]; 5 nM monensin added day 1) was 11 10^6c/ml and the Viability ([1]; 5 nM monensin added day 1) was 82%. The Titer ([1]; 10 nM monensin added day 1) was 3.635 g/L, the VCD ([1]; 10 nM monensin added day 1) was 11 10^6c/ml and the Viability ([1]; 10 nM monensin added day 1) was 81%. For the same compound, the “impact on cell culture parameters” value ([1]; 25 nM bolus on day 0 or 200 nM or 100 nM bolus on day 3) was “no negative impact on cell culture parameters”, the Titer ([1]; 25 nM monensin added day 1) was 5.22 g/L and the VCD ([1]; 25 nM monensin added day 1) was 11 10^6c/ml. The Viability ([1]; 25 nM monensin added day 1) was 85%, the Titer ([1]; 50 nM monensin added day 1) was 2.025 g/L and the VCD ([1]; 50 nM monensin added day 1) was 5 10^6c/ml. For the same compound, the Viability ([1]; 50 nM monensin added day 1) was 72%, the Titer ([1]; 100 nM monensin added day 3) was 3.515 g/L and the VCD ([1]; 100 nM monensin added day 3) was 11 10^6c/ml. The Viability ([1]; 100 nM monensin added day 3) was 86%, the Titer ([1]; 200 nM monensin added day 3) was 4.43 g/L and the VCD ([1]; 200 nM monensin added day 3) was 11 10^6c/ml. The Viability ([1]; 200 nM monensin added day 3) was 87%, the Titer ([1]; 500 nM monensin added day 3) was 3.055 g/L and the VCD ([1]; 500 nM monensin added day 3) was 5 10^6c/ml. For the same compound, the Viability ([1]; 500 nM monensin added day 3) was 41%, the “Total HM” value (Cells producing MAb C; [2]) was 49.6% and the “Total HM” value (Cells producing MAb C; [3]) was 31.1%. The “Total HM” value (Cells producing MAb C; [4]) was 30.9%, the Man6 (Cells producing MAb C; [5]) was 5.3% and the Man7 (Cells producing MAb C; [5]) was 3.6%. For the same compound, the Man8a (Cells producing MAb C; [5]) was 0.7%, the Man8b (Cells producing MAb C; [5]) was 1.4% and the Man9 (Cells producing MAb C; [5]) was 0.3%. For the same compound, the “Total HM” value (Cells producing MAb C; [6]) was 56.6%, the “Total HM” value (Cells producing MAb C; [7]) was 67.6% and the “Total HM” value (Cells producing MAb C; [8]) was 65.8%. It also gave a Man5 (Cells producing MAb C; [9]) of 31.6%, a Man6 (Cells producing MAb C; [9]) of 13.7% and a Man7 (Cells producing MAb C; [9]) of 12.3%. The Man8a (Cells producing MAb C; [9]) was 1.0%, the Man8b (Cells producing MAb C; [9]) was 5.9% and the Man9 (Cells producing MAb C; [9]) was 1.3%. The “Total HM” value (Cells producing MAb A; [2]) was 55.7%, the “Total HM” value (Cells producing MAb A; [3]) was 19.7% and the “Total HM” value (Cells producing MAb A; [4]) was 9%. For the same compound, the Man5 (Cells producing MAb A; constant monensin 25 nM) was 5.6%, the Man6 (Cells producing MAb A; constant monensin 25 nM) was 1.2% and the Man7 (Cells producing MAb A; constant monensin 25 nM) was 1.0%. For the same compound, the Man8a (Cells producing MAb A; constant monensin 25 nM) was 0.4%, the Man8b (Cells producing MAb A; constant monensin 25 nM) was 0.6% and the Man9 (Cells producing MAb A; constant monensin 25 nM) was 0.2%. The “Total HM” value (Cells producing MAb A; increasing monensin (25 nM day 4, 50 nM days 5-9), Day 6) was 61.9%, the “Total HM” value (Cells producing MAb A; increasing monensin (25 nM day 4, 50 nM days 5-9), Day 8) was 44.9% and the “Total HM” value (Cells producing MAb A; increasing monensin (25 nM day 4, 50 nM days 5-9), Day 10) was 23.2%. The Man5 (Cells producing MAb A; increasing monensin (to 50 nM)) was 14.2%, the Man6 (Cells producing MAb A; increasing monensin (to 50 nM)) was 3.7% and the Man7 (Cells producing MAb A; increasing monensin (to 50 nM)) was 1.9%. The Man8a (Cells producing MAb A; increasing monensin (to 50 nM)) was 0.6%, the Man8b (Cells producing MAb A; increasing monensin (to 50 nM)) was 1.4% and the Man9 (Cells producing MAb A; increasing monensin (to 50 nM)) was 0.4%. For the same compound, the “Total HM” value (Cells producing MAb D; [2]) was 70.6%, the “Total HM” value (Cells producing MAb D; [3]) was 80.1% and the “Total HM” value (Cells producing MAb D; [4]) was 72.6%. The Man5 (Cells producing MAb D; constant monensin 25 nM) was 30.4%, the Man6 (Cells producing MAb D; constant monensin 25 nM) was 14.7% and the Man7 (Cells producing MAb D; constant monensin 25 nM) was 15.3%. It also gave a Man8a (Cells producing MAb D; constant monensin 25 nM) of 0.7%, a Man8b (Cells producing MAb D; constant monensin 25 nM) of 10.1% and a Man9 (Cells producing MAb D; constant monensin 25 nM) of 1.4%. The “high mannose species upregulated” value (Cells producing MAb D; increasing dose of monensin) was “primarily upregulated Man7 and Man8(b) high mannose glycans”, the “Total HM” value (Cells producing MAb D; [6]) was 83.0% and the “Total HM” value (Cells producing MAb D; [7]) was 92.5%. The “Total HM” value (Cells producing MAb D; [8]) was 94.9%, the Man5 (Cells producing MAb D; [10]) was 12.8% and the Man6 (Cells producing MAb D; [10]) was 14.9%. The Man7 (Cells producing MAb D; [10]) was 27.2%, the Man8a (Cells producing MAb D; [10]) was 0.8% and the Man8b (Cells producing MAb D; [10]) was 34.3%. For the same compound, the Man9 (Cells producing MAb D; [10]) was 5.0%, the “Total HM” value (Cells producing MAb B; [2]) was 9.6% and the “Total HM” value (Cells producing MAb B; [3]) was 4.6%. The “Total HM” value (Cells producing MAb B; [4]) was 4.0%, the Man5 (Cells producing MAb B; constant monensin 25 nM) was 2.2% and the Man6 (Cells producing MAb B; constant monensin 25 nM) was 0.7%. It also gave a Man7 (Cells producing MAb B; constant monensin 25 nM) of 0.5%, a Man8a (Cells producing MAb B; constant monensin 25 nM) of 0.3% and a Man8b (Cells producing MAb B; constant monensin 25 nM) of 0.3%. The Man9 (Cells producing MAb B; constant monensin 25 nM) was 0.0%, the “Total HM” value (Cells producing MAb B; [6]) was 13.2% and the “Total HM” value (Cells producing MAb B; [7]) was 12.4%. The “Total HM” value (Cells producing MAb B; [8]) was 14.0%, the Man5 (Cells producing MAb B; [10]) was 7.7% and the Man6 (Cells producing MAb B; [10]) was 3.0%. The Man7 (Cells producing MAb B; [10]) was 2.0%, the Man8a (Cells producing MAb B; [10]) was 0.3% and the Man8b (Cells producing MAb B; [10]) was 0.9%. It also gave a Man9 (Cells producing MAb B; [10]) of 0.1%.

Reference: patent US11299760B2 (Amgen Inc., priority 2013, dated 2022)
